{"source": "ChEMBL document CHEMBL4004884", "about": "“Sesquiterpene derivatives from marine sponge Smenospongia cerebriformis and their anti-inflammatory activity” (Bioorg Med Chem Lett, 2017)", "key": {"BV-2 [1]": {"tested_on": "BV-2", "assay": "Antiinflammatory activity in mouse BV2 cells assessed as inhibition of LPS-stimulated nitric oxide production at 40 uM by Griess assay relative to control", "assay_type": "functional"}, "BV-2 [2]": {"tested_on": "BV-2", "assay": "Antiinflammatory activity in mouse BV2 cells assessed as inhibition of LPS-stimulated nitric oxide production by Griess assay", "assay_type": "functional, cell-based"}, "[3]": {"assay": "Cytotoxicity against mouse BV2 cells assessed as cell viability at 40 uM relative to control", "assay_type": "cell-based, BV-2", "settings": "read-out: Activity"}}, "data": [{"smiles": "C=C1CCC[C@H]2[C@](C)(C[C@H]3C(=O)C=C(OC)[C@@H]3O)[C@@H](C)CC[C@]12C", "values": [{"measurement": "inhibition at 40 µM", "setting": "BV-2 [1]", "value": "> 50", "unit": "%"}, {"measurement": "IC50", "setting": "BV-2 [2]", "value": 30.1, "unit": "µM"}, {"measurement": "viability at 40 µM", "setting": "[3]", "value": 141, "unit": "%"}]}, {"smiles": "C=C1CCC[C@H]2[C@](C)(Cc3c(O)c(OC)cc4ncoc34)[C@@H](C)CC[C@]12C", "values": [{"measurement": "IC50", "setting": "BV-2 [2]", "value": "> 40", "unit": "µM"}, {"measurement": "viability at 40 µM", "setting": "[3]", "value": 92.1, "unit": "%"}]}, {"smiles": "C=C1CCC[C@H]2[C@](C)(C[C@@H]3C(=O)C=C(OC)[C@@H]3O)[C@@H](C)CC[C@]12C", "values": [{"measurement": "inhibition at 40 µM", "setting": "BV-2 [1]", "value": "> 50", "unit": "%"}, {"measurement": "IC50", "setting": "BV-2 [2]", "value": 28.3, "unit": "µM"}, {"measurement": "viability at 40 µM", "setting": "[3]", "value": 174, "unit": "%"}]}, {"smiles": "C=C1CCC[C@H]2[C@](CO)(Cc3cc(C(=O)OC)c(O)c(OC)c3O)[C@@H](C)CC[C@]12C", "values": [{"measurement": "inhibition at 40 µM", "setting": "BV-2 [1]", "value": "> 50", "unit": "%"}, {"measurement": "IC50", "setting": "BV-2 [2]", "value": 24.4, "unit": "µM"}, {"measurement": "viability at 40 µM", "setting": "[3]", "value": 160, "unit": "%"}]}, {"smiles": "C=C1CCC[C@H]2[C@](C)(CC3=C(O)C(=O)C=C(OC)C3=O)[C@@H](C)CC[C@]12C", "note": "[ILIMAQUINONE]", "values": [{"measurement": "inhibition at 40 µM", "setting": "BV-2 [1]", "value": "> 50", "unit": "%"}, {"measurement": "IC50", "setting": "BV-2 [2]", "value": 10.4, "unit": "µM"}, {"measurement": "viability at 40 µM", "setting": "[3]", "value": 95.7, "unit": "%"}]}, {"smiles": "C=C1CCC[C@H]2[C@](C=O)(Cc3cc(C(=O)OC)c(O)c(OC)c3O)[C@@H](C)CC[C@]12C", "values": [{"measurement": "IC50", "setting": "BV-2 [2]", "value": "> 40", "unit": "µM"}, {"measurement": "viability at 40 µM", "setting": "[3]", "value": 106, "unit": "%"}]}, {"smiles": "C=C1CCC[C@H]2[C@](C)(Cc3cc(C(=O)OC)cc(OC)c3O)[C@@H](C)CC[C@]12C", "note": "[POLYFIBROSPONGOL A]", "values": [{"measurement": "IC50", "setting": "BV-2 [2]", "value": "> 40", "unit": "µM"}, {"measurement": "viability at 40 µM", "setting": "[3]", "value": 125, "unit": "%"}]}, {"smiles": "C=C1CCC[C@H]2[C@](C)(Cc3cc(C(=O)OC)ccc3O)[C@@H](C)CC[C@]12C", "values": [{"measurement": "IC50", "setting": "BV-2 [2]", "value": "> 40", "unit": "µM"}, {"measurement": "viability at 40 µM", "setting": "[3]", "value": 121, "unit": "%"}]}, {"smiles": "CNC(=N)NCCC[C@H](N)C(=O)O", "note": "[TILARGININE]", "values": [{"measurement": "IC50", "setting": "BV-2 [2]", "value": 22.1, "unit": "µM"}, {"measurement": "viability at 40 µM", "setting": "[3]", "value": 95.5, "unit": "%"}]}, {"smiles": "C=C1CCC[C@H]2[C@](CO)(Cc3cc(C(=O)OC)cc(OC)c3O)[C@H](C)CC[C@]12C", "values": [{"measurement": "inhibition at 40 µM", "setting": "BV-2 [1]", "value": "> 50", "unit": "%"}, {"measurement": "IC50", "setting": "BV-2 [2]", "value": 24.4, "unit": "µM"}, {"measurement": "viability at 40 µM", "setting": "[3]", "value": 171, "unit": "%"}]}]}
